Experimental data from US8058437B2, “(Pyrroloquinoxalinyl) pyrazinecarbohydrazide-oxalic acid co-crystal for treatment of cancer and other diseases” (Novelix Pharmaceuticals, Inc., priority 2008, dated 2011).

Assay: Salt formation experiments / physical characteristics of solid forms
Format: physicochemical
Details: solid hydrochloride salt
Procedure: Thus, a series of experiments was conducted to assess the preparation of NVX-144 salts of acids other than hydrochloric acid as possible novel compounds better suited to pharmaceutical preparations. […] As expected, NVX-144 base readily formed salts with strong organic acids.
Although oxalic acid co-crystals are rare, Trask et al. have reported a co-crystal of caffeine with oxalic acid (see Trask et al., “Pharmaceutical Cocrystallization: Engineering a Remedy for Caffeine Hydration,” Crystal Growth & Design, 5, 1013-21 (2005)).
Thus NVX-144 would not be expected to form a salt with oxalic acid, a relatively strong dicarboxylic acid.

With Cl.O=C(NNc1nc2cc(F)ccc2n2cccc12)c1cnccn1 [NVX-144.HCl, N′-(7-fluoropyrrolo[1,2a]quinoxalin-4-yl)pyrazine-2-carbohydrazide hydrochloride] the “physical characteristics of crystals” value was “fluffy, statically-charged, hygroscopic crystals”.
